Measurements taken from patent US6620841B1, “Aromatic heterocycle compounds having HIV integrase inhibiting activities” (Shionogi & Co., Ltd., priority 1998, dated 2003).
Structures can show the parent of a compound that is named as a salt.

Tests used:
HIV-1 integrase = HIV-1 integrase (Human immunodeficiency virus type 1 group M subtype B, UniProt P12497); assay: HIV-1 integrase inhibition assay (microtiter plate, substrate/target DNA, OD 405 nm)
Procedure: (2) Calculations of the Percent Inhibitions (the IC50 Values of Test Compounds)
Streptavidin, obtained from Vector Laboratories, was dissolved in 0.1 M carbonate buffer (composition: 90 mM Na2CO3, 10 mM NaHCO3) at concentration of 40 μg/ml. After coating each well of microtiter plates (obtained from NUNC) with 50 μl of the above solution at 4° C. over night, each well was washed twice with PBS (composition: 13.7 mM NaCl, 0.27 mM KCl, 0.43 mM Na2HPO4, 0.14 mM KH2PO4) and blocked with 300 μl of 1% skim milk in PBS for 30 min. Additionally, each well was washed twice with PBS and added 50 μl of substrate DNA solution (2 pmol/μl). The microtiter plates were kept at room temperature for 30 min. Then, each well was washed twice with PBS and once with H2O.
Subsequently, in the each well prepared above were added 45 μl of the reaction buffer prepared from 12 μl of the buffer (composition: 150 mM MOPS (pH 7.2), 75 mM MnCl2, 50 mM 2-mercaptoethanol, 25% glycerol, 500 μg/ml bovine serum albumin-fraction V), 1 μl of target DNA (5 pmol/μl), and 32 μl of the distilled water. Additionally, 6 μl of either a test compound in DMSO or DMSO for positive control(PC) was mixed with the above reaction buffer, then 9 μl of an integrase solution (30 pmol) was added and mixed well. In the well of negative control (NC) was added 9 μl of the integrase dilution buffer (composition: 20 mM MOPS (pH7.2), 400 mM potassium glutamate, 1 mM EDTA, 0.1% NP-40, 20% glycerol, 1 mM DTT, 4M urea).
The microtiter plates were incubated at 30° C. for 1 hour. The reaction solution was removed and each well was washed twice with PBS. Subsequently, each well of the microtiter plates was filled with 100 μl of anti-digoxigenin antibody labeled with alkaline phosphatase (Sheep Fab fragment: obtained from Boehringer) and incubated at 30° C. for 1 hour. Then, each well was washed twice with 0.05% Tween20 in PBS and once with PBS. Next, 150 μl of the Alkaline phosphatase reaction buffer (composition: 10 mM p-Nitrophenylphosphate (obtained from Vector Laboratories), 5 mM MgCl2, 100 mM NaCl, 100 mM Tris-HCl (pH 9.5))was added in each well. […] The optical density (OD) at 405 nm of each well was measured and the percent inhibition was determined by the following expression.
The percent inhibition (%)=100[1-{(C abs.−NC abs.)/(PC abs.−NC abs.)}]
C abs.; the OD of the well of the compounds
NC abs.: the OD of the negative control (NC)
PC abs.: the OD of the positive control (PC)
IC50(μg/ml)=x−{(X−50)(x−y)/(X−Y)}

Structure (SMILES)	melting point	IC50 (HIV-1 integrase)
O=C(/C=C(\O)c1nc[nH]n1)c1cc(C(=O)O)n(Cc2ccccc2)c1 [I-2, 1-[(1-Benzyl-5-carboxy)pyrrol-3-yl]-3-hydroxy-3-(1H-1,2,4-triazol-3-yl)-propenone]	264 to 265 °C	2.96 µM
COC(=O)C(O)=CC(=O)c1ccc(Cc2ccc(F)cc2)o1 [I-53, 4-[5-(4-Fluorobenzyl)furan-2-yl]-2-hydroxy-4-oxo-2-butenoic acid methyl ester]	102 to 104 °C	7.89 µM
O=C(O)C(O)=CC(=O)c1ccc(Cc2ccc(F)cc2)o1 [I-54, 4-[5-(4-Fluorobenzyl)furan-2-yl]-2-hydroxy-4-oxo-2-butenoic acid]	145 to 148 °C	0.827 µM
Cc1nc(C(O)=CC(=O)c2ccc(Cc3ccc(F)cc3)o2)n[nH]1 [I-60, 1-[5-(4-Fluorobenzyl)furan-2-yl]-3-hydroxy-3-(5-methyl-1H-1,2,4-triazol-3-yl)-propenone]	179 to 182 °C	2.11 µM
Cc1cc(Cc2ccc(F)cc2)oc1C(=O)C=C(O)c1nc[nH]n1 [I-61, 1-[[5-(4-Fluorobenzyl)-3-methyl]furan-2-yl]-3-hydroxy-3-(1H-1,2,4-triazol-3-yl)-propenone]	191 to 192 °C	2.08 µM
O=C(C=C(O)c1nc[nH]n1)c1ccc(Sc2ccc(F)cc2)o1 [I-68, 1-[5-(4-Fluorophenylthio)furan-2-yl]-3-hydroxy-3-(1H-1,2,4-triazol-3-yl)-propenone]	–	0.996 µM
O=C(C=C(O)c1nc[nH]n1)c1ccc(Sc2ccc(F)cc2F)o1 [I-70, 1-[5-(2,4-Difluorophenylthio)furan-2-yl]-3-hydroxy-3-(1H-1,2,4-triazol-3-yl)-propenone]	158 to 160 °C	1.2 µM
O=C(C=C(O)c1nc[nH]n1)c1ccc(Cc2ccc(F)cc2F)o1 [I-74, 1-[5-(2,4-Difluorobenzyl)furan-2-yl]-3-hydroxy-3-(1H-1,2,4-triazol-3-yl)-propenone]	171 to 173 °C	1.3 µM
O=C(C=C(O)c1nc[nH]n1)c1ccc(Cc2ccccc2Cl)o1 [I-80, 1-[5-(2-Chlorobenzyl)furan-2-yl]-3-hydroxy-3-(1H-1,2,4-triazol-3-yl)-propenone]	169 to 171 °C	1.61 µM
O=C(C=C(O)c1nc[nH]n1)c1ccc(Cc2cccs2)o1 [I-83, 3-Hydroxy-1-[[5-(thiophen-2-yl)methyl]furan-2-yl]-3-(1H-1,2,4-triazol-3-yl)-propenone]	207 to 208 °C	4.98 µM
O=C(C=C(O)c1nc[nH]n1)c1ccc(Cc2ccsc2)o1 [I-85, 3-Hydroxy-1-[[5-(thiophen-3-yl)methyl]furan-2-yl]-3-(1H-1,2,4-triazol-3-yl)-propenone]	210 to 211 °C	4.65 µM
O=C(C=C(O)c1nc[nH]n1)c1cc(Cl)c(Cc2ccc(F)cc2)o1 [I-86, 1-[4-Chloro-5-(4-fluorobenzyl)furan-2-yl]-3-hydroxy-3-(1H-1,2,4-triazol-3-yl)-propenone]	203 to 204 °C	1.44 µM
O=C(C=C(O)c1nc[nH]n1)c1ccc(Cc2ccsc2Cl)o1 [I-91, 1-[[5-(2-Chlorothiophen-3-yl)methyl]furan-2-yl]-3-hydroxy-3-(1H-1,2,4-triazol-3-yl)-propenone]	105 to 106 °C	1.79 µM
O=C(C=C(O)c1nc[nH]n1)c1ccc(C(O)c2ccc(F)cc2)o1 (centres unmarked) [I-94, 1-[5-(4-Fluorophenyl-hydroxy-methyl)furan-2-yl]-3-hydroxy-3-(1H-1,2,4-triazol-3-yl)-propenone]	191 to 192 °C (dec.)	4.86 µM
Cc1nc(C(O)=CC(=O)c2ccc(Cc3ccc(F)cc3)o2)cs1 [I-96, 1-[5-(4-Fluorobenzyl)furan-2-yl]-3-hydroxy-3-(2-methylthiazol-4-yl)-propenone]	96 to 98 °C	2.45 µM
COCc1nc(C(O)=CC(=O)c2ccc(Cc3ccc(F)cc3)o2)n[nH]1 [I-97]	167 to 168 °C	1.71 µM
CCc1nc(C(O)=CC(=O)c2ccc(Cc3ccc(F)cc3)o2)n[nH]1 [I-98, 3-(5-Ethyl-1H-1,2,4-triazol-3-yl)-1-[5-(4-fluorobenzyl)furan-2-yl]-3-hydroxy-propenone]	204 to 205 °C	1.35 µM
CC(C)c1nc(C(O)=CC(=O)c2ccc(Cc3ccc(F)cc3)o2)n[nH]1 [I-99, 1-[5-(4-Fluorobenzyl)furan-2-yl]-3-hydroxy-3-(5-isopropyl-1H-1,2,4-triazol-3-yl)-propenone]	146 to 147 °C	1.86 µM
Cn1ccnc1C(O)=CC(=O)c1ccc(Cc2ccc(F)cc2)o1 [I-100, 1-[5-(4-Fluorobenzyl)furan-2-yl]-3-hydroxy-3-(1-methyl-1H-imidazol-2-yl)-propenone]	56 to 57 °C	4.9 µM
O=C(C=C(O)c1ncc[nH]1)c1ccc(Cc2ccc(F)cc2)o1 [I-101, 1-[5-(4-Fluorobenzyl)furan-2-yl]-3-hydroxy-3-(1H-imidazol-2-yl)-propenone hydrochloride]	–	1.7 µM
O=C(C=C(O)c1nccs1)c1ccc(Cc2ccc(F)cc2)o1 [I-104, 1-[5-(4-Fluorobenzyl)furan-2-yl]-3-hydroxy-3-(thiazol-2-yl)-propenone]	–	1.76 µM
CCCc1nc(C(O)=CC(=O)c2ccc(Cc3ccc(F)cc3)o2)n[nH]1 [I-112, 1-[5-(4-Fluorobenzyl)furan-2-yl]-3-hydroxy-3-(5-propyl-1H-1,2,4-triazol-3yl)-propenone]	167 to 168 °C	1.72 µM
O=C(Nc1nc[nH]n1)C(O)=CC(=O)c1ccc(Cc2ccc(F)cc2)o1 [I-138, 4-[5-(4-Fluorobenzyl)furan-2-yl]-2-hydroxy-4-oxo-2-butenoic acid (1H-1,2,4-triazol-3-yl)amide]	250 °C (dec.)	–
O=C(Nc1nncs1)C(O)=CC(=O)c1ccc(Cc2ccc(F)cc2)o1 [I-139, 4-[5-(4-Fluorobenzyl)furan-2-yl]-2-hydroxy-4-oxo-2-butenoic acid ([1,3,4]thiadiazol-2-yl)amide]	199 to 201 °C (dec.)	–
O=C(C=C(O)c1nc[nH]n1)c1cnc(Cc2ccc(F)cc2)o1 [I-150, 1-[2-(4-Fluorobenzyl)oxazolyl-5-yl]-3-hydroxy-3-(1H-1,2,4-triazol-3-yl)-propenone]	200 to 203 °C	3.12 µM
O=C(C=C(O)c1ccccn1)c1cnc(Cc2ccc(F)cc2)o1 [I-151, 1-[2-(4-Fluorobenzyl)oxazolyl-5-yl]-3-hydroxy-3-(pyridin-2-yl)-propenone]	108 to 109 °C	–
O=C(C=C(O)c1ncccn1)c1cnc(Cc2ccc(F)cc2)o1 [I-152, 1-[2-(4-Fluorobenzyl)oxazolyl-5-yl]-3-hydroxy-3-(pyrimidin-2-yl)-propenone]	97 to 100 °C	–
